# Measurements from US20060052350A1, “Crystalline forms of 1,24(S)-dihydroxy vitamin D2” (priority 2004, published 2006).
# Test: Stability of the crystalline forms exposed to 100% relative humidity (resulting form identified by powder XRD)
# Assay type: physicochemical
# Conditions: 100% relative humidity for about 1 week at room temperature
# Experimental: The crystal forms were identified using an Applied Research Laboratory (SCINTAG) powder X-ray diffractometer model X'TRA equipped with a solid state detector. The crystal samples were analyzed using a round aluminum sample holder with zero background and copper radiation of 1.5418 Å.
smiles,measurement,value
"C=C1/C(=C\C=C2/CCCC3(C)C2CCC3[C@H](C)/C=C/[C@@](C)(O)C(C)C)C[C@@H](O)C[C@@H]1O (stereo partly drawn) [Form B, 1,24(S)-dihydroxy vitamin D2]",Maintenance of crystal structure (no transformation to another crystalline form) on humidity exposure,maintain their crystal structure
